In one assay the test system is TUNEL-positive cells. The assay can be described thus: TUNEL staining of brain 24 h after TBI in WT mice. The format is in vivo. How it is done: Quantification of TUNEL staining 24 h after TBI plus i.p. injection of NA112 at 0.1 or 1.0 mg/kg. Total numbers of TUNEL-positive cells in 3 coronal sections (Bregma 0.50, −0.58, −1.58 mm) of each brain were counted and averaged. Results are means S.E.M. of 3 animals. * p<0.05 vs Vehicle. One-way ANOVA followed by Bonferroni test.
Vehicle (control liposomes) or 0.1 or 1 mg/kg of NA112 dissolved in liposomal formulation was injected 1 h after TBI in WT mice. Animals were sacrificed 24 h later and brains were stained with TUNEL staining to analyze the extent of cell death.
The number of TUNEL-positive cells in images similar to those shown in FIG. 12 was quantified (FIG. 13). Results in FIG. 13 are Means±S.E.M. of 3 different animals.
Quantification of TUNEL staining 24 h after TBI plus i.p. injection of WT mice with NA184 at indicated doses 1 h after TBI. Total numbers of TUNEL-positive cells in 3 coronal sections (Bregma 0.50, −0.58, −1.58 mm) of each brain were counted and averaged. Results are means±S.E.M. of 3-6 animals. * p<0.05, ** p<0.01, vs Vehicle. One-way ANOVA followed by Bonferroni test (FIG. 20).

For the next assay, the target named is T1, calpain-2 (Mus musculus, UniProt O08529).
T1 sequence (O08529 1-700): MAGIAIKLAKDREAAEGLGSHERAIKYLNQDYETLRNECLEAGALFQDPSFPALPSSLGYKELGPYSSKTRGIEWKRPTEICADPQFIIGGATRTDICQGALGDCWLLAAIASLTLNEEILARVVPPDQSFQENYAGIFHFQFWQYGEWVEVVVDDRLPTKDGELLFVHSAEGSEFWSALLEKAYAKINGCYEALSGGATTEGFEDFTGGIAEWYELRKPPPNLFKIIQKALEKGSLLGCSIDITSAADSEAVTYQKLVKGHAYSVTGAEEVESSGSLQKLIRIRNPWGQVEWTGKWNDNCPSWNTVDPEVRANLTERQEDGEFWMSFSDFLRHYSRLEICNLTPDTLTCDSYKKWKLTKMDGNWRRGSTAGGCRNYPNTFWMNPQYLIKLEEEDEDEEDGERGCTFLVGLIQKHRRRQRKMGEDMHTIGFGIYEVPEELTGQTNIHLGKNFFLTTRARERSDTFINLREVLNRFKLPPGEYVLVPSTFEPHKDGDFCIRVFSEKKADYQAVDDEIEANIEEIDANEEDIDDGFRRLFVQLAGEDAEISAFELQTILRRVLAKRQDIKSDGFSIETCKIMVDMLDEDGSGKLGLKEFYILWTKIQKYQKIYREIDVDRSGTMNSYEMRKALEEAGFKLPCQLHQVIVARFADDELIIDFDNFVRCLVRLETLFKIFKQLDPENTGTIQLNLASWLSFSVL
T1 sequence (O88456 1-268 partner): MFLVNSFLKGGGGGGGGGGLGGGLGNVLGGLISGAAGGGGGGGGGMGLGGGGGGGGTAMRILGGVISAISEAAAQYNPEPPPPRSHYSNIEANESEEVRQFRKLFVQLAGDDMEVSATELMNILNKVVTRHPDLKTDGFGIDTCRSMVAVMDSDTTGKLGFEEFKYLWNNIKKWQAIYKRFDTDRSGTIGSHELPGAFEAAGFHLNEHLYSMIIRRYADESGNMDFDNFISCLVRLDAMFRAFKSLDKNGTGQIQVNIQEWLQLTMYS
The assay is described as follows: Calpain-2 activity after TBI in mice (i.p. dosing). The format is in vivo. On the set-up: from tissue; host or cells: cerebellar P2 fractions / brain of wild-type mice after TBI. As to the method:
Calpain activity in cerebellar P2 fractions was measured 24 h after traumatic brain injury (TBI) in adult wild-type mice and the assay results for calpain-1 and calpain-2 are shown in FIG. 2. 0.1 or 1 mg/kg of NA112 was injected intraperitoneally 1 h after TBI. Each measurement of in vivo selectivity was obtained as follows: • Calpain-1 activity: Calpain activity with 20 μM Ca^2+. Normalized to Vehicle. • Calpain-2 activity: Calpain activity with 5 mM Ca^2+ minus Calpain activity with 20 μM Ca^2+. Results are means S.E.M. of 3 experiments.
Calpain activity in cerebellar P2 fractions was measured 24 h after TBI in adult WT mice, and vehicle or 0.1 or 1 mg/kg of NA112 (12) dissolved in DMSO or liposomal formulation (lipo) was injected intraperitoneally 1 h after TBI. […]
Vehicle (DMSO or liposomes) or 0.1 or 1 mg/kg of NA112 (12) dissolved in DMSO or liposomal formulation (lipo) was injected intraperitoneally 1 h after TBI in WT mice. Calpain activity was measured 24 h later in cerebellar P2 fractions. Calpain-1 activity was measured in the presence of 20 μM calcium and calpain-2 activity was measured as the difference between calpain activity measured in the presence of 5 mM calcium and that measured in the presence of 20 μM calcium (FIG. 11). In both cases, calpain activity was normalized to the values measured in vehicle-treated mice. […]

As usually defined, the ED50 is the dose at which the effect has come halfway, by size or by number of responders. A higher ED50 goes with weaker potency.

As to `CCC(NC(=O)[C@H](CC(C)C)NC(=O)NCc1ccccc1)C(=O)C(=O)NCc1cc(OC)cc(OC)c1` (mixture of isomers) [NA112, (2S)-2-(3-benzylureido)-N-(1-((3,5-dimethoxybenzyl)amino)-1,2-dioxopentan-3-yl)-4-methylpentanamide], the TUNEL staining result in the assay on TUNEL-positive cells (liposomal formulation, 0.1 or 1 mg/kg 1 h after TBI, 24 h later) is “decrease in TUNEL staining”. Further, the “Calpain-2 inhibition, DMSO vs liposomes” value at calpain-2 (0.1 or 1 mg/kg i.p. 1 h after TBI, cerebellar P2 fractions 24 h after TBI) was “same degree of calpain-2 inhibition”.

With `CCC(NC(=O)[C@H](CC(C)C)NC(=O)NCc1ccccc1)C(=O)C(=O)NCc1cccc(Cl)c1OC` (stereo partly drawn) [NA184, (2S)-2-(3-benzylureido)-N-(1-((3-chloro-2-methoxybenzyl)amino)-1,2-dioxopentan-3-yl)-4-methylpentanamide], the ED50 in the assay on TUNEL-positive cells (Mus musculus, ip, i.p. 1 h after TBI, DMSO solution, TUNEL 24 h after TBI) is around 0.13 mg/kg. For the same compound, at calpain-2 (1 mg/kg i.p., 24 h after TBI), the “Calpain-2 inhibition in brain, male and female mice” value was “significantly inhibited calpain-2”.

The values above are taken from US12606520B2, “Calpain-2 inhibitor compounds and methods of treatment” (WESTERN UNIVERSITY OF HEALTH SCIENCES, priority 2020, dated 2026).
